From ChEMBL document CHEMBL2046364, “Synthesis and evaluation of novel 3a,9a-dihydro-1-ethoxycarbonyl-1-cyclopenteno[5,4-b]benzopyran-4-ones as antifungal agents” (2012)
Converted amounts (≈) assume the structure as drawn.

Assays:
Type in all cases: functional
[1] = Antifungal activity against Epidermophyton MTCC 613 by spectrophotometry based assay
Aspergillus niger = assay: Antifungal activity against Aspergillus niger MTCC 2642 by spectrophotometry based assay
Saccharomyces cerevisiae = assay: Antifungal activity against Saccharomyces cerevisiae MTCC 1344 by spectrophotometry based assay
Candida albicans = assay: Antifungal activity against Candida albicans MTCC 3018 by spectrophotometry based assay
[2] = Antifungal activity against Cryptococcus gastricus MTCC 1715 by spectrophotometry based assay; conditions: Goffeauzyma gastrica

CCOC(=O)C1=CC[C@H]2C(=O)c3cc(F)ccc3O[C@H]12
MIC [1]: > 100 µg/mL
MIC (Aspergillus niger): > 100 µg/mL
MIC (Saccharomyces cerevisiae): 25 µg/mL (≈ 90.5 µM)

OC(Cn1cncn1)(Cn1cncn1)c1ccc(F)cc1F [FLUCONAZOLE]
MIC [1]: 6.25 µg/mL (≈ 20.4 µM)
MIC (Aspergillus niger): 1.5 µg/mL (≈ 4.9 µM)
MIC (Saccharomyces cerevisiae): 1.5 µg/mL (≈ 4.9 µM)
MIC (Candida albicans): 3.12 µg/mL (≈ 10.2 µM)
MIC [2]: 6.25 µg/mL (≈ 20.4 µM)

CCOC(=O)C1=CC[C@H]2C(=O)c3ccc(F)cc3O[C@H]12
MIC [1]: 50 µg/mL (≈ 181 µM)
MIC (Aspergillus niger): 12.5 µg/mL (≈ 45.2 µM)
MIC (Saccharomyces cerevisiae): 12.5 µg/mL (≈ 45.2 µM)
MIC (Candida albicans): 25 µg/mL (≈ 90.5 µM)
MIC [2]: 100 µg/mL (≈ 362 µM)

CCOC(=O)C1=CC[C@H]2C(=O)c3cc(C)ccc3O[C@H]12
MIC [1]: > 100 µg/mL
MIC (Aspergillus niger): > 100 µg/mL
MIC (Saccharomyces cerevisiae): > 100 µg/mL

CCOC(=O)C1=CC[C@H]2C(=O)c3cccc(Cl)c3O[C@H]12
MIC [1]: 50 µg/mL (≈ 171 µM)
MIC (Aspergillus niger): 12.5 µg/mL (≈ 42.7 µM)
MIC (Saccharomyces cerevisiae): 12.5 µg/mL (≈ 42.7 µM)
MIC (Candida albicans): 50 µg/mL (≈ 171 µM)
MIC [2]: > 100 µg/mL

CCOC(=O)C1=CC[C@H]2C(=O)c3cc(Br)ccc3O[C@H]12
MIC (Aspergillus niger): 50 µg/mL (≈ 148 µM)
MIC (Saccharomyces cerevisiae): 50 µg/mL (≈ 148 µM)

CCOC(=O)C1=CC[C@H]2C(=O)c3cc(F)c(Cl)cc3O[C@H]12
MIC (Aspergillus niger): 100 µg/mL (≈ 322 µM)
MIC (Saccharomyces cerevisiae): 25 µg/mL (≈ 80.5 µM)
MIC (Candida albicans): > 100 µg/mL

CCOC(=O)C1=CC[C@H]2C(=O)c3ccc(Br)cc3O[C@H]12
MIC (Aspergillus niger): 100 µg/mL (≈ 297 µM)
MIC (Saccharomyces cerevisiae): 100 µg/mL (≈ 297 µM)

CCOC(=O)C1=CC[C@H]2C(=O)c3ccccc3O[C@H]12
MIC [1]: > 100 µg/mL
MIC (Aspergillus niger): 25 µg/mL (≈ 96.8 µM)
MIC (Saccharomyces cerevisiae): 50 µg/mL (≈ 194 µM)
MIC (Candida albicans): 25 µg/mL (≈ 96.8 µM)

CCOC(=O)C1=CC[C@H]2C(=O)c3ccc(Cl)cc3O[C@H]12
MIC (Aspergillus niger): 25 µg/mL (≈ 85.4 µM)
MIC (Saccharomyces cerevisiae): 25 µg/mL (≈ 85.4 µM)
MIC (Candida albicans): 50 µg/mL (≈ 171 µM)

CCOC(=O)C1=CC[C@H]2C(=O)c3cc(Cl)ccc3O[C@H]12
MIC (Aspergillus niger): 12.5 µg/mL (≈ 42.7 µM)
MIC (Saccharomyces cerevisiae): > 100 µg/mL
MIC (Candida albicans): 50 µg/mL (≈ 171 µM)
